The text below walks through data of US6794126B2, “Methods for preventing or inhibiting neuronal cell death” (The Trustees of Columbia University in the City of New York, priority 1996, dated 2004).

Series [1] deals with sympathetic neurons. In words: Survival of sympathetic neurons exposed to UV irradiation. Format: cell-based, rat. Particulars: for survival of UV-treated sympathetic neurons: NGF present, pretreated before UV, flavopiridol 1 mM (sic, FIG. 6A), olomoucine 200 μM, isoolomoucine 200 μM, aphidicolin 10 μM; for concentration of maximal protection: UV-treated, day 1. The procedure: Cells were exposed to UV irradiation using the Stratolinker UV crosslinker (Stratagene®). Sympathetic neurons were exposed to 3×10^4 μJ while neuronal PC12 cells were exposed to […]. Each well was exposed with 200 μl of medium containing NGF with or without the appropriate drug. After irradiation 300 μl of additional medium containing NGF with or without drug was added.
(§1) The cells were plated onto collagen-coated 24-well dishes at a density of approximately 0.5 ganglia per well and maintained in RPMI 1640 medium supplemented with 10% heat-inactivated horse serum and 60 ng/ml mouse NGF for a period of three days prior to the survival experiment. A mixture of uridine and 5-fluorodeoxyuridine (10 mM each) was also added to eliminate non-neuronal cells on day two. No pretreatment with survival agent, unless otherwise noted, was necessary for effective survival of neurons exposed to AraC. In the case of UV irradiation, the neurons died quite rapidly. Accordingly, neuronal cultures were pretreated overnight (18 hr) with survival-promoting agents prior to UV irradiation. NGF deprivation was performed by washing with NGF-free medium and addition of anti-NGF antiserum as previously described (Park et al., 1996a). V-ASOD1 oligonucleotides, in conjunction with the nitric oxide generator, S-nitrosopenicillamine (SNAP; 100 μM) were added to the cultured sympathetic neurons as previously described (Troy et al., 1997). At appropriate times, the numbers of viable, phase bright neurons were determined by strip counting as previously described (Rydel and Greene; 1988). All experimental points are expressed relative to the original number of neurons present in each well and are reported as mean+/−SEM (n=3).

For series [2], the system named is sympathetic neurons. In words: Survival of sympathetic neurons treated with AraC. Format: cell-based. As to conditions: for survival of AraC-treated sympathetic neurons: NGF present, flavopiridol 1 mM, olomoucine 200 mM (printed, FIG. 8), isoolomoucine 200 μM, aphidicolin 10 μM; for maximal concentration required to protect from AraC: day 3; for toxicity of the CDK inhibitors to sympathetic neurons: beyond five days, even without AraC treatment. As for the experimental part:
A mixture of uridine and 5-fluorodeoxyuridine (10 mM each) was also added to eliminate non-neuronal cells on day two. No pretreatment with survival agent, unless otherwise noted, was necessary for effective survival of neurons exposed to AraC. In the case of UV irradiation, the neurons died quite rapidly. Accordingly, neuronal cultures were pretreated overnight (18 hr) with survival-promoting agents prior to UV irradiation. […] All experimental points are expressed relative to the original number of neurons present in each well and are reported as mean+/−SEM (n=3).

Series [3] concerns sympathetic neurons. In words: Survival of sympathetic neurons depleted of SOD1 (V-ASOD1 plus SNAP). Format: cell-based, rat. The procedure: as §1
Series [4] has as its system sympathetic neurons. In words: Survival of sympathetic neurons deprived of NGF (Example 2). Format: cell-based, rat. Particulars: for death of sympathetic neurons deprived of NGF: CDK inhibitors, same experiments as SOD1 depletion (FIG. 10). As for the experimental part:
as §1

The subject of series [5] is PC12 cells. The series is described as follows: PC12 cell survival after withdrawal of serum/NGF (trophic factor deprivation). Format: cell-based, rat. As for the experimental part:
(§2) PC12 cells were grown as previously described (Greene and Tishcler, 1976) on rat-tail collagen-coated dishes in RPMI 1640 medium containing 5% fetal calf serum and 10% heat-inactivated horse serum (complete medium). NGF primed PC12 cells were grown for at least 7 days in RPMI 1640 medium plus 1% horse serum and NGF (100 ng/ml). For cell survival assays involving trophic factor deprivation, cells (either naive or NGF-pretreated) were extensively washed in serum-free RPMI 1640 medium and re-plated on fresh collagen-coated 24-well dishes as previously described (Rukenstein et al., 1991) in RPMI 1640 medium lacking serum or NGF. For SOD1 down-regulation survival assays, cells were re-plated in complete medium with V-ASOD1 (vector linked antisense oligonucleotide to SOD1, 50 nM). Various concentrations of ICE inhibitors were included in the medium as indicated. Numbers of viable cells per culture were determined by quantifying intact nuclei as previously described (Rukenstein et al., 1991). Counts were performed in triplicate and reported as means±SEM.

The test system of series [6] is sympathetic neurons. The series is described as follows: Survival of cultured sympathetic neurons after NGF withdrawal (Example 1). Format: cell-based, rat. As for the experimental part: Sympathetic neuron cultures were prepared from 2 day old rat pups, as previously described (Ferrari et al., 1995). Cultures were grown in 24-well collagen coated dishes in RPMI 1640 medium plus 10% horse serum with mouse NGF (100 ng/ml). One day following plating, uridine and 5-fluorodeoxyuridine (10 μM each) were added to the cultures and left for three days to eliminate non-neuronal cells. On the sixth day following plating NGF was removed by washing the cultures three times with RPMI 1640 medium plus 10% horse serum, followed by the addition of medium containing anti-mouse NGF (1:200, Sigma) with or without ICE inhibitors. Each culture was scored, as previously described (Rydel and Greene, 1988), as numbers of living, phase-bright neurons at various times. Three replicate cultures were assessed for each condition and data were normalized to numbers of neurons present in each culture at the time of NGF withdrawal and reported as mean±SEM.

Series [7] deals with PC12 cells. In words: PC12 cell survival after SOD1 down-regulation by V-ASOD1. Format: cell-based, rat. As for the experimental part:
as §2

Another series concerns neuronal PC12 cells. The series is described as follows: Survival of neuronal PC12 cells depleted of SOD1 (Example 2). Format: cell-based, rat. As for the experimental part:
Naive PC12 cells were cultured and passaged as previously described (Greene and Tischler, 1976). Neuronally-differentiated PC12 cells were generated by exposing PC12 cells to NGF in serum-free RPMI 1640 medium for 8-9 days. For survival experiments, neuronally-differentiated PC12 cells were plated onto collagen-coated 24-well tissue culture dishes at a density of approximately 2×10^5 cells per well. Neuronally-differentiated PC12 cells were cultured in serum-free RPMI 1640 medium containing NGF (100 ng/ml) throughout the course of survival experiments. At appropriate times of culture under the conditions described in the text, cells were lysed and the numbers of viable cells was evaluated as previously described (Rukenstein et al., 1991). All experimental points are expressed as a percentage of cells plated on day 0 and are reported as mean +/−SEM (n=3).

A further series has as its system proliferating PC12 cells. As to conditions: proliferating PC12 cells (Park et al., 1996a); cited from earlier work.
A further series deals with IL-1β. The series is described as follows: Assay of IL-1β secreted by PC12 cells (ELISA). Format: cell-based, rat. Particulars: cells treated with NGF, 24 h. As for the experimental part: IL-1β was quantified by ELISA using the Intertest-1βX kit (Genzyme, Cambridge, Mass.). PC12 cells were grown as described above, on 24-well plates, in 500 μl of medium. After one day incubation, medium was removed and IL-1β measured following the manufacturer's instructions, and number of viable cells in each well quantified.

“Also recorded” adds a separate entry of the source. Residues, ends and D or L forms follow the SMILES beside them. *: point of attachment. Cbz = O=C(OCc1ccccc1)*; CH2F = FC*

On to `Cn1cnc2nc(NCCO)nc(NCc3ccccc3)c21` [isoolomoucine], for which the “survival of UV-treated sympathetic neurons” value with sympathetic neurons [1] was “nearly ineffective”. In addition, in the series on sympathetic neurons [2] (AraC 100 μM), the “survival of AraC-treated sympathetic neurons” value was “ineffective”.

For the molecule `CC(=O)N[C@@H](Cc1ccc(O)cc1)C(=O)N[C@H](C(=O)N[C@@H](C)C(=O)N[C@@H](CC(=O)O)C(=O)CCl)C(C)C` [acYVAD-cmk], the “death evoked by SOD1 depletion” value in the series on sympathetic neurons [3] (250 μM, two days, ASOD1 with SNAP 100 μM) was “blocks death”. Besides, in the series on sympathetic neurons [4] (250 μM, two days), the “death due to NGF deprivation” value is reported as “not death due to NGF deprivation”.

`C[C@@]1(CO)[C@H](O)CC[C@@]2(C)[C@H]1CC[C@H]1C[C@@H]3C[C@@]12CC[C@]3(O)CO` [aphidicolin]: in the series with sympathetic neurons [1], the “survival of UV-treated sympathetic neurons” value was “failed to block death”. The “survival of AraC-treated sympathetic neurons” value in the series on sympathetic neurons [2] (AraC 100 μM) is reported as “failed to block death”.

For the molecule `COC(=O)C[C@H](NC(=O)[C@H](C)NC(=O)[C@@H](NC(=O)OCc1ccccc1)C(C)C)C(=O)CF` [ZVAD-FMK, ZVAD-fluoromethylketone] (Cbz-Val-Ala-Asp(OMe)-CH2F), in the series with PC12 cells [5] (serum withdrawal, one day), the “concentration required to be fully protective” value is 50 µM. Also, the “protection from NGF deprivation” value in the series on sympathetic neurons [6] (100 μM) was “protected”. In addition, the “dose required for maximal protection” value in the series with PC12 cells [7] (V-ASOD1 50 nM, one day) turned out to be 6 µM. In addition, in the series with sympathetic neurons [1] (50 μM, pretreated 16 hr), the “survival of sympathetic cultures exposed to UV irradiation” value is “ineffective”. In addition, the “survival of sympathetic cultures exposed to AraC” value with sympathetic neurons [2] (50 μM, AraC 100 μM) is “ineffective”. Besides, the “protection of sympathetic neurons depleted of SOD1” value (“protection … of SOD1” below) in the series on sympathetic neurons [3] (50 μM, exposed to nitric oxide generators) was “protected”. Further, in the series on sympathetic neurons [4] (50 μM), the “protection from death due to NGF-depletion” value was “protects”.

As for `CC(C)[C@H](NC(=O)[C@H](Cc1ccc(O)cc1)NC(=O)OCc1ccccc1)C(=O)N[C@@H](C)C(=O)N[C@@H](CC(=O)O)C(=O)CCl` [ZYVAD-CMK, ZYVAD-chloromethylketone], the “protection from trophic factor withdrawal” value in the series with PC12 cells [5] (250 μM) is recorded as “only partially effective; also recorded: partial protection”. Moreover, in the series with sympathetic neurons [6] (250 μM), the “protection from NGF deprivation” value was “no effect”. The “protection from SOD1 down-regulation” value with PC12 cells [7] (50 μM) is “full protection”.

As to `CN1CC[C@H](c2c(O)cc(O)c3c(=O)cc(-c4ccccc4Cl)oc23)[C@H](O)C1` [flavopiridol], in the series with sympathetic neurons [1], the “survival of UV-treated sympathetic neurons” value is reported as “effectively promoted survival” and the “concentration of maximal protection” value was in the range of 1 to 3 µM. In addition, in the series with sympathetic neurons [2] (AraC 100 μM), the “survival of AraC-treated sympathetic neurons” value was “quite effectively promoted long term survival” and the “maximal concentration required to protect from AraC” value came out at 1 µM. Moreover, in the series with sympathetic neurons [2], the “toxicity of the CDK inhibitors to sympathetic neurons” value was “toxicity”. In addition, the “protection … of SOD1” value with sympathetic neurons [3] (ASOD1 50 nM with SNAP 100 μM) is on record as “neither flavopiridol nor olomoucine protected”. Besides, the “death of sympathetic neurons deprived of NGF” value in the series on sympathetic neurons [4] is listed as “effectively blocked the death”. Also, in the series with neuronal PC12 cells, the “death of neuronal PC12 cells depleted of SOD1” value is “failed to inhibit death”. Moreover, in the series with proliferating PC12 cells, the “minimum concentration required to fully inhibit DNA synthesis” value is 1 µM.

For the molecule `Cn1cnc2c(NCc3ccccc3)nc(NCCO)nc21` [olomoucine, 2-(2-hydroxyethylamino)-6-benzylamino-9-methylpurine], in the series with sympathetic neurons [1], the “survival of UV-treated sympathetic neurons” value is reported as “effectively promoted survival” and the “concentration of maximal protection” value is 200 µM. For the same molecule, in the series with sympathetic neurons [2] (AraC 100 μM), the “survival of AraC-treated sympathetic neurons” value is “quite effectively promoted long term survival” and the “maximal concentration required to protect from AraC” value is 200 µM. Further, the “toxicity of the CDK inhibitors to sympathetic neurons” value with sympathetic neurons [2] is “toxicity”. In addition, the “protection … of SOD1” value with sympathetic neurons [3] (ASOD1 50 nM with SNAP 100 μM) was “neither flavopiridol nor olomoucine protected”. For the same molecule, the “death of sympathetic neurons deprived of NGF” value with sympathetic neurons [4] is “effectively blocked the death”. In addition, the “death of neuronal PC12 cells depleted of SOD1” value with neuronal PC12 cells is “failed to inhibit death”. The “minimum concentration required to fully inhibit DNA synthesis” value with proliferating PC12 cells was 200 µM.

B1: NGF: nerve growth factor (mouse NGF) (protein, UniProt P01139 122-241, looked up)
Beta-nerve growth factor: SSTHPVFHMGEFSVCDSVSVWVGDKTTATDIKGKEVTVLAEVNINNSVFRQYFFETKCRASNPVESGCRGIDSKHWNSYCTTTHTFVKALTTDEKQAAWRFIRIDTACVCVLSRKATRRG
In the case of B1, in the series on IL-1β, the “increase in IL-1β secretion” value turned out to be 4 fold.

B2: rmIL-1Ra: IL-1 receptor antagonist (protein, UniProt P25085 27-178, looked up)
Interleukin-1 receptor …: RPSGKRPCKMQAFRIWDTNQKTFYLRNNQLIAGYLQGPNIKLEEKIDMVPIDLHSVFLGIHGGKLCLSCAKSGDDIKLQLEEVNITDLSKNKEEDKRFTFIRSEKGPTTSFESAACPGWFLCTTLEADRPVSLTNTPEEPLIVTKFYFQEDQ
For the molecule B2, the “protection from trophic factor withdrawal” value in the series with PC12 cells [5] (10,000 ng/ml, one day) is “improved survival under these conditions only modestly”. In the series on PC12 cells [7] (100 ng/ml), the “suppression of cell death of V-ASOD1 treated PC12 cells” value is recorded as “completely suppressed cell death”.
